Measurements taken from patent US20250374926A1, “NOVEL DERIVATIVES OF NON-CODED AMINO ACIDS AND THEIR USE IN CROP PROTECTION” (FORTEPHEST LTD., priority 2022, published 2025).
Structures can show the parent of a compound that is named as a salt.

These compounds were tested on Lettuce seeds (assay: Filter paper bioassay on germination and early development of Lettuce seeds). Details: 144 h, lowest concentration causing malformation of radicle or shoots; visually assessed six days after beginning; 0 to 1 mmol/l; read-out: MEC, score (Minimal Effective Concentration, activity score) (converted).
Assay type: in vivo
Description: Materials: Seeds of Lettuce R. (Super-Jericho, non-sterilized) were obtained from Ben Shahar Moshe Ltd., 99% purity. The test compounds listed in Table 3 below were synthesized de novo or purchased from different vendors. Bioassays: Filter Paper Bioassays with Lettuce seeds were performed following Bertin et al. 2009 with modifications as described below. Seeds were placed on Whatman no. 1 filter paper (Whatman, Middlesex, U.K.) in Petri dishes (10 seeds per plate) with 2.0 ml of an aqueous solution of test material in a concentration ranging from 0 (control) to 1 mmol/l. The Petri dishes were arranged in a tray tilted at a 45-degree angle and were kept in the dark for 48 hours. Then trays with plates were transferred to the growth chamber with a 6/18 dark/light cycle for four days. Each experiment was performed in at least two repeats.
The development of plants' radicles and shoots was visually assessed six days after the beginning of the test to determine the Minimal Effective Concentration (MEC) of a test material. In the context of the invention, MEC is defined as the lowest concentration level of a test material that caused deviation (malformation of radicle or shoots).

SMILES	minimal effective concentration [µM]
O=C(O)CSc1cccc(Br)n1 [compound 6688, [(6-bromopyridin-2-yl)sulfanyl]acetic acid]	1
CCOC(=O)CSc1cccc(Br)n1 [compound 6693, ethyl [(6-bromopyridin-2-yl)sulfanyl]acetate]	1
CCOC(=O)CSc1nc(Cl)cs1 [compound 7112, ethyl [(4-chloro-1,3-thiazol-2-yl)sulfanyl]acetate]	10
CCOCCOCCOC(=O)COc1ccc(Br)c(Br)n1 [compound 7172, 2-(2-ethoxyethoxy)ethyl [(5,6-dibromopyridin-2-yl)oxy]acetate]	1
CCOCCOCCOC(=O)CSc1ccc(Br)c(Br)n1 [compound 7139, 2-(2-ethoxyethoxy)ethyl [(5,6-dibromopyridin-2-yl)sulfanyl]acetate]	1
O=C(O)CCCCSc1ccc(Br)c(Br)n1 [compound 7187, 5-[(5,6-dibromopyridin-2-yl)sulfanyl]pentanoic acid]	1
CCOC(=O)CSc1nc(Br)ccc1F [compound 7160, ethyl 2-[(6-bromo-3-fluoropyridin-2-yl)sulfanyl]acetate]	< 1
CC(Sc1ccc(Br)c(Br)n1)C(=O)O (stereo not shown) [compound 7182, 2-[(5,6-dibromopyridin-2-yl)sulfanyl]propanoic acid]	10
O=C(O)CSc1nc(Br)ccc1Br [compound 7124, [(3,6-dibromopyridin-2-yl)sulfanyl]acetic acid]	1
O=C(O)CNc1c(Cl)csc1Cl [compound 7147, 2-[(2,4-dichlorothiophen-3-yl)amino]acetic acid hydrochloride]	10
O=C(O)CSc1ccc(F)c(Br)n1 [compound 7151, [(6-bromo-5-fluoropyridin-2-yl)sulfanyl]acetic acid]	< 1
O=C(O)c1csc(Cl)n1 [compound 7194, 2-chloro-1,3-thiazole-4-carboxylic acid]	100
O=C(O)CNc1nc(Cl)cs1 [compound 7125, 2-[(4-chloro-1,3-thiazol-2-yl)amino]acetic acid]	10
CCOC(=O)CSc1ccc(F)c(Br)n1 [compound 7114, ethyl 2-[(6-bromo-5-fluoropyridin-2-yl)sulfanyl]acetate]	< 1
COC(=O)Cc1nc(Cl)sc1C#N [compound 7167, methyl 2-(2-chloro-5-cyano-1,3-thiazol-4-yl)acetate]	10
CCCCOC(=O)CSc1ccc(Br)c(Br)n1 [compound 6700, butyl [(5,6-dibromopyridin-2-yl)sulfanyl]acetate]	1
O=C(O)CCSc1ccc(Br)c(Br)n1 [compound 7178, 3-[(5,6-dibromopyridin-2-yl)sulfanyl]propanoic acid]	1
O=C(O)CC#Cc1nc(Cl)sc1Cl [compound 7145, 4-(2,5-dichloro-1,3-thiazol-4-yl)but-3-ynoic acid]	1
NCCCCNc1ccc(Br)c(Br)n1 [compound 6709, N1-(5,6-dibromopyridin-2-yl)butane-1,4-diamine]	10
O=C(O)C[S+]([O-])c1nc(Cl)sc1Cl (stereo not shown) [compound 7137, (2,5-dichloro-1,3-thiazole-4-sulfinyl)acetic acid]	10
CCOC(=O)C(Cl)(Cl)c1csc(Cl)n1 [compound 7188, ethyl dichloro(2-chloro-1,3-thiazol-4-yl)acetate]	100

SMILES	minimal effective concentration [µM]
O=C(O)CCCSc1ccc(Br)c(Br)n1 [compound 7174, 4-[(5,6-dibromopyridin-2-yl)sulfanyl]butanoic acid]	< 1
CCOC(=O)CSc1nc(Cl)sc1Cl [compound 7119, ethyl 2-[(2,5-dichloro-1,3-thiazol-4-yl)sulfanyl]acetate]	10
CCOC(=O)Cc1ccc(F)c(Br)n1 [compound 7117, ethyl (6-bromo-5-fluoropyridin-2-yl)acetate]	10
COC(=O)Cc1ncsc1C#N [compound 7168, methyl 2-(5-cyano-1,3-thiazol-4-yl)acetate]	10
O=C(O)CNc1nc(Br)c(Br)cc1F [compound 7169, 2-[(5,6-dibromo-3-fluoropyridin-2-yl)amino]acetic acid]	1
O=C(O)CS(=O)(=O)c1nc(Cl)sc1Cl [compound 7138, (2,5-dichloro-1,3-thiazol-4-sulfonyl)acetic acid]	10
CCOC(=O)Sc1csc(Cl)n1 [compound 7189, S-(2-chloro-1,3-thiazol-4-yl) O-ethyl carbonothioate]	10
O=C(O)CSc1nc(Cl)cs1 [compound 7109, 2-[(4-chloro-1,3-thiazol-2-yl)sulfanyl]acetic acid]	10
O=C(O)CNc1ccc(F)c(Br)n1 [compound 7148, 2-[(6-bromo-5-fluoropyridin-2-yl)amino]acetic acid]	10
O=C(O)CCCCNc1ccc(F)c(Br)n1 [compound 7165, 5-[(6-bromo-5-fluoropyridin-2-yl)amino]pentanoic acid]	10
CCOC(=O)c1c[nH]cc1CC#N [compound 7131, ethyl 4-(cyanomethyl)-1H-pyrrole-3-carboxylate]	10
O=C(Cc1ccccc1)NCCCNc1cccc(Br)n1 [compound 7121, N-{3-[(6-bromopyridin-2-yl)amino]propyl}-2-phenylacetamide]	10
O=C(O)CCCCNc1nc(Br)c(Br)cc1F [compound 7170, 5-[(5,6-dibromo-3-fluoropyridin-2-yl)amino]pentanoic acid]	1
O=C(O)CS(=O)(=O)c1csc(Cl)n1 [compound 5851, (2-chloro-1,3-thiazol-4-sulfonyl)acetic acid]	1
CCOC(=O)CSc1csc(Cl)n1 [compound 5850, ethyl 2-[(2-chloro-1,3-thiazol-4-yl)sulfanyl]acetate]	10
CCCCCCCCOC(=O)CSc1cccc(Br)n1 [compound 7106, octyl [(6-bromopyridin-2-yl)sulfanyl]acetate]	10
O=C(O)CNc1ccc(Br)c(Br)n1 [compound 7122, 2-[(5,6-dibromopyridin-2-yl)amino]acetic acid]	1
CCCCOC(=O)C[S+]([O-])c1ccc(Br)c(Br)n1 (stereo not shown) [compound 6703, butyl (5,6-dibromopyridine-2-sulfinyl)acetate]	10
O=C(O)CNc1cccc(Br)n1 [compound 6702, 2-[(6-bromopyridin-2-yl)amino]acetic acid]	1
CCCCOC(=O)CSc1nc(Cl)ccc1Br [compound 6694, butyl [(3-bromo-6-chloropyridin-2-yl)sulfanyl]acetate]	1

Same assay, conditions: lowest concentration causing malformation of radicle or shoots; visually assessed six days after beginning; 0 to 1 mmol/l

SMILES	activity score
O=C(Cc1ccccc1)NCCCCNc1cccc(Br)n1 [compound 7123, N-{4-[(6-bromopyridin-2-y1)amino]butyl}-2-phenylacetamide]	4 (0.01 mM)

What follows are compounds tested on Sinapis (assay: Post-emergence herbicidal effect on potted weeds). Details: 2-3 true leaves, up to 5 mg/pot, scale 0 (dead plants) to 5 (healthy, as control).
Assay type: in vivo
Description: (§1) Weed seeds were sawn in 0.3-liter pots containing medium-heavy clay-loam soil from organic fields (55% clay, 23% silt, 20% sand, 2% organic matter, pH 7.1). The experiment was conducted in a completely randomized design. Each treatment was replicated three times (3 pots). Each compound was typically tested on a weed panel which included Amaranth, Abutilon, Malva, Silybum, and Sinapis. The herbicides were applied at doses from 0 (control) to 5 mg/pot. The herbicides were applied on grown plants at stage 2-3 true leaves (post-emergence treatment). The plants were grown in the mesh house during the entire experiment. Plant development at 6, 12, 19, 26, and 32 days after application (DAA) was evaluated on a scale of 0 to 5, in which 0 represents dead plants, and 5 represents healthy plants similar or not different from Control. In the context of the invention, the herbicidal effect was expressed as a score calculated as an average of assessments of plants' vigor, height, and leaf color.

SMILES	Average Herbicidal Effect, score
CCOC(=O)CSc1ccc(F)c(Br)n1 [compound 7114, ethyl 2-[(6-bromo-5-fluoropyridin-2-yl)sulfanyl]acetate]	4

Each compound was assayed on Lactuca (assay: Post-emergence herbicidal effect on potted weeds). Details: 2-3 true leaves, up to 5 mg/pot, scale 0 (dead plants) to 5 (healthy, as control).
Assay type: in vivo
Description: as §1

SMILES	Average Herbicidal Effect, score
CCOC(=O)CSc1ccc(F)c(Br)n1 [compound 7114, ethyl 2-[(6-bromo-5-fluoropyridin-2-yl)sulfanyl]acetate]	5

What follows are compounds tested on Amaranth (assay: Post-emergence herbicidal effect on potted weeds). Details: 2-3 true leaves, up to 5 mg/pot, scale 0 (dead plants) to 5 (healthy, as control).
Assay type: in vivo
Description: as §1

SMILES	Average Herbicidal Effect, score
CCOC(=O)CSc1ccc(F)c(Br)n1 [compound 7114, ethyl 2-[(6-bromo-5-fluoropyridin-2-yl)sulfanyl]acetate]	3

These compounds were tested on Abutilon (assay: Post-emergence herbicidal effect on potted weeds). Details: 2-3 true leaves, up to 5 mg/pot, scale 0 (dead plants) to 5 (healthy, as control).
Assay type: in vivo
Description: as §1

SMILES	Average Herbicidal Effect, score
CCOC(=O)CSc1ccc(F)c(Br)n1 [compound 7114, ethyl 2-[(6-bromo-5-fluoropyridin-2-yl)sulfanyl]acetate]	5

These compounds were tested on Malva (assay: Post-emergence herbicidal effect on potted weeds). Details: 2-3 true leaves, up to 5 mg/pot, scale 0 (dead plants) to 5 (healthy, as control).
Assay type: in vivo
Description: as §1

SMILES	Average Herbicidal Effect, score
CCOC(=O)CSc1ccc(F)c(Br)n1 [compound 7114, ethyl 2-[(6-bromo-5-fluoropyridin-2-yl)sulfanyl]acetate]	4

Each compound was assayed on Silybum (assay: Post-emergence herbicidal effect on potted weeds). Details: 2-3 true leaves, up to 5 mg/pot, scale 0 (dead plants) to 5 (healthy, as control).
Assay type: in vivo
Description: as §1

SMILES	Average Herbicidal Effect, score
CCOC(=O)CSc1ccc(F)c(Br)n1 [compound 7114, ethyl 2-[(6-bromo-5-fluoropyridin-2-yl)sulfanyl]acetate]	5

The compounds below were run on Trifolium (assay: Post-emergence herbicidal effect on potted weeds). Details: 2-3 true leaves, up to 5 mg/pot, scale 0 (dead plants) to 5 (healthy, as control).
Assay type: in vivo
Description: as §1

SMILES	Average Herbicidal Effect, score
CCOC(=O)CSc1ccc(F)c(Br)n1 [compound 7114, ethyl 2-[(6-bromo-5-fluoropyridin-2-yl)sulfanyl]acetate]	4
